Laboratory results: paper PMC9455805, “Preparation, Characterization and In Vitro Stability of a Novel ACE-Inhibitory Peptide from Soybean Protein” (Foods, 2022)
Entries after “also recorded” stand apart in the source; their conditions may differ. Read-outs that look alike come from different tables or passages of the source. Peptide text beside a SMILES is read from it.

Experiments:
pepsin and pancreatin = assay: In vitro simulated gastrointestinal digestion, then ACE-inhibitory activity assay and ESI-MS; format: in vitro ADME
Experimental: Pepsin (1 mg) was added, and the mixture was stirred at 37 °C for 2 h. Then, the pH was adjusted to 6 with 0.9 M NaHCO3, and afterwards to 7.5 with 1 M NaOH. Pancreatin (1 mg) was added, and the solution was incubated at 37 °C for 4 h.

ACE = tested on: ACE; set-up: method as in 5 sources, ref 34 = [34]; PMID 12843654; doi:10.1271/bbb.67.1278; 34. Kuba M. Tanaka K. Tawata S. Takeda Y. Yasuda M. Angiotensin I-converting enzyme inhibitory peptides isolated from tofuyo fermented soybean food Biosci. Biotechnol. Biochem. 2003 67 1278 1283 10.12 ||| ref 33 = [33]; PMID 25410725; doi:10.1002/bab.1321; 33. Sornwatana T. Bangphoomi K. Roytrakul S. Wetprasit N. Choowongkomon K. Ratanapo S. Chebulin: Terminalia chebula Retz. fruit-derived peptide with angiotensin-I–converting enzyme inhibitory activity ||| ref 35 = [35]; doi:10.1016/j.foodchem.2010.05.026; 35. Jiang Z. Tian B. Brodcrob A. Huo G. Production, analysis and in vivo evaluation of novel angiotensin-I-converting enzyme inhibitory peptides from bovine casein Food Chem. 2010 123 779 786 10.1016/ ||| ref 7 = [7]; doi:10.1016/j.foodchem.2009.04.086; 7. Lee S.H. Qian Z.J. Kim S.K. A novel angiotensin I converting enzyme inhibitory peptide from tuna frame protein hydrolysate and its antihypertensive effect in spontaneously hypertensive rats Food Ch ||| ref 36 = [36]; PMID 23140680; doi:10.1016/j.foodchem.2011.01.010; 36. Jang J.H. Jeong S.C. Kim J.H. Lee Y.H. Ju Y.C. Lee J.S. Characterisation of a new antihypertensive angiotensin I-converting enzyme inhibitory peptide from Pleurotus cornucopiae Food Chem. 2011 127; details: cited from earlier work; for IC50: read-out: IC50 (ACE, non-competitive peptide)
[1] = from Pleurotus cornucopiae mushroom

N=C(N)NCCC[C@H](NC(=O)[C@H](CC(=O)O)NC(=O)[C@@H](N)CC(N)=O)C(=O)N1CCC[C@H]1C(=O)O [NDRP] (H-NDRP-OH)
maximal ACE inhibition of the in vitro-digested sample (pepsin and pancreatin; 10 mg mL−1 in H2O, pepsin, pH 2, 37 °C, 2 h, then pancreatin, pH 7.5, 37 °C, 4 h, enzymes deactivated in boiling water bath 10 min, freeze-dried, read-out ACE assay): 82.47 ± 1.07% | residual ACE-inhibitory activity of the digested sample relative to pure peptide (pepsin and pancreatin; after pepsin (pH 2, 2 h) and pancreatin (pH 7.5, 4 h) at 37 °C, ratio of maximal ACE inhibition, digested vs pure NDRP): 94% | stability toward in vitro simulated gastrointestinal digestion (in words) (pepsin and pancreatin; pepsin (pH 2, 2 h) then pancreatin (pH 7.5, 4 h), 37 °C, ACE assay and ESI-MS (peak of intact peptide observed)): stable towards gastrointestinal simulated digestion; also recorded: might be resistant to gastrointestinal digestion; also recorded: highly stable

DENSKF
IC50 (ACE; from fruits of T. chebula Retz.): 100 µM

DERF
IC50 (ACE, non-competitive peptide) (ACE; from bovine casein hydrolysate): 21 µg/mL

GDLGKTTTVSNWSPPKYKDTP
IC50 (ACE; from tuna frame protein hydrolysate): 11.3 µM

RLPSEFDLSAFLRA
IC50 (ACE, non-competitive peptide) (ACE; [1]): 450 µg/mL

RLSGQTIEVTSEYLFRH
IC50 (ACE, non-competitive peptide) (ACE; [1]): 1100 µg/mL

RYPSYG
IC50 (ACE, non-competitive peptide) (ACE; from bovine casein hydrolysate): 54 µg/mL
